# Measured values taken from US6893654B2, “Two-stage transmucosal medicine delivery system for symptom relief” (priority 1998, dated 2005).
# Settings: solution at pH 8.0
smiles,measurement,value
CN1CCCC1c1cccnc1 (stereo not shown) [nicotine],portion of nicotine unionized and free to be absorbed,fifty
